These results are taken from patent publication US5426099A, “Process for inducing analgesia, peptides and therapeutic compositions” (Rutgers, The State University of New Jersey, priority 1991, dated 1995).

Entries after “also recorded” stand apart in the source; their conditions may differ. Where no end group is shown, it is not given here.

One test has as its system lumbo-sacral spinal cord. The settings on record: administered to rats to the intrathecal space of the lumbo-sacral spinal cord; Komisaruk et al. 1988; cited from earlier work.
In a further test the test system is kidney. On the set-up: key: + = Stimulation; - = Inhibition. The settings on record: Porter+ 88; cited from earlier work.
The subject of a further test is bronchi. The settings on record: Palmer+ 86; cited from earlier work.
For test [1] the following is noted: intrathecal injection; Cridland and Henry 1988; cited from earlier work.
A further test deals with gastric mucosa. Further details: key: + = Stimulation; - = Inhibition. The settings on record: Sutliff+ 86; cited from earlier work.
A further test deals with pit. tumor cells. The settings on record: Westendorf+ 83; cited from earlier work.
The next test concerns systemic. On the set-up: key to cardiac output / blood pressure / arterial blood flow: + = Stimulation; - = Inhibition. The settings on record: Said, cited from earlier work.
Another test concerns uterus. The settings on record: Morris+ 89; cited from earlier work.
For a further test, the system named is genital tract. On the set-up: key: + = Stimulation; - = Inhibition. The settings on record: Fahrenkrug+ 88; cited from earlier work.
The test system of another test is Schwann cell. The settings on record: Evans+; cited from earlier work.
A further test has as its system pancreatic cells. On the set-up: key: + = Stimulation; - = Inhibition. The settings on record: Robberecht+ 76; cited from earlier work.
The test system of the next test is stomach. The settings on record: Said, Mutt+ 77; cited from earlier work.
In test [2] the test system is female Sprague-Dawley rats. Briefly: Tail-flick latency to radiant heat.
For another test, the system named is brain (amygdala). Further details: key: + = Stimulation; - = Inhibition. The settings on record: Quik+ 79; cited from earlier work.
The subject of another test is brain arteries. The settings on record: Suzuki+ 84; cited from earlier work.
Test [3] has as its system periaqueductal gray matter. The settings on record: administered to rats directly into the periaqueductal gray matter; Sullivan and Pert 1981; cited from earlier work.
The conditions of test [4]: reported; cited from earlier work.
In the next test the test system is trachea. The settings on record: Said, Mutt+ 77; cited from earlier work.
Another test concerns mononuclear cells. Further details: key: + = Stimulation; - = Inhibition. The settings on record: Ottaway+ 83; cited from earlier work.
In a further test the test system is colonic cells. On the set-up: key: + = Stimulation; - = Inhibition. The settings on record: McCabe+ 88; cited from earlier work.
A further test deals with eye. Further details: key: + = Stimulation; - = Inhibition. The settings on record: cited from earlier work.
A further test concerns arterial cells. On the set-up: key: + = Stimulation; - = Inhibition. The settings on record: Huang+ 84; cited from earlier work.
In another test the test system is colon. Further details: key: + = Stimulation; - = Inhibition. The settings on record: cited from earlier work.
A further test relates to skin. On the set-up: key: + = Stimulation; - = Inhibition. The settings on record: Yanaihara+ 87; cited from earlier work.
On the set-up of test [5]: key: + = Stimulation; - = Inhibition. The settings on record: Pandol+ 86; cited from earlier work.
In another test the test system is dienceph. cells. Further details: key: + = Stimulation; - = Inhibition. The settings on record: Reichlin 88; cited from earlier work.
The subject of a further test is vagina. On the set-up: key: + = Stimulation; - = Inhibition. The settings on record: Fahrenkrug+ 88; cited from earlier work.
Another test deals with pancreatic acini. Further details: key: + = Stimulation; - = Inhibition. The settings on record: Musso+ 88; cited from earlier work.
The test system of another test is cortical slices. Further details: key: + = Stimulation; - = Inhibition. The settings on record: Magistretti+ 84; cited from earlier work.
In the next test the test system is heart. Further details: key: + = Stimulation; - = Inhibition. The settings on record: Smitherman+ 88; cited from earlier work.
A further test relates to spinal cord cult. Further details: key: + = Stimulation; - = Inhibition. The settings on record: Brenneman 88; cited from earlier work.
For the next test, the system named is ovarian granulosa. Further details: key: + = Stimulation; - = Inhibition. The settings on record: cited from earlier work.
The next test concerns brain (IV vent.). Further details: key: + = Stimulation; - = Inhibition. The settings on record: Drucker-Colin+ 88; cited from earlier work.
The next test concerns smooth muscle. Briefly: Smooth muscle relaxant action.
For test [6], the system named is female Sprague-Dawley rats. Kind of test: Vocalization threshold to tail shock. The format is in vivo, rat. The settings on record: intrathecal; for elevation in vocalization threshold: 30 min. postinjection; for vocalization threshold compared with saline group (significance): sulfate. The text has this: Electrical stimulation (100 millisecond trains of 60 Hz square waveform at three-second intervals ranging from 0.01 to 0.4 mA in 0.01 mA increments) is applied (under computer control using a Commodore 64C computer and a Coulbourn constant current stimulator) to the surface of the tail via two lengths of blunt 18-ga stainless steel tubing coated with conductive gel (Spectra 360 Electrode Gel; Parker Laboratories Inc., Orange, N.J. 07050) and taped to the midsection of the tail 2 cm apart, parallel to the axis of the tail. An ascending/descending method of limits is used to estimate the threshold (in mA) to induce vocalization. In this method, an observer records whether or not vocalization occurs in response to each shock. If an animal vocalizes at a particular current intensity, the current intensity is then reduced stepwise until a shock no longer elicits a vocalization response. Then the current is increased stepwise until the animal again vocalizes, and so on, until all mA values for 6 such inversions are obtained. The vocalization threshold estimate is the mean of these 6 values.
The vocalization threshold to tail shock increased by 70% over baseline (pre-injection) levels by the first minute after the intrathecal injection of VIP 11-28 (molar quantity equivalent to 25 mcg VIP 11-28, hereafter referred to as 25 mcge [microgram equivalents]).
Female Sprague-Dawley rats weighing 250 g are used in the testing. The rats are ovariectomized and implanted surgically through the cisterna magna with an intrathecal catheter (i.t.) (PE 10 polyethylene tubing 7.5 cm length) at least 1 week before testing.

Test [7] has as its system female Sprague-Dawley rats. Briefly: Vocalization threshold to tail shock. The test is classed as in vivo, rat. The settings on record: intravenous, 3 mg.

Turning to `CC[C@H](C)[C@H](NC(=O)[C@H](CO)NC(=O)[C@H](CC(N)=O)NC(=O)[C@H](CC(C)C)NC(=O)[C@H](Cc1ccc(O)cc1)NC(=O)[C@H](CCCCN)NC(=O)[C@H](CCCCN)NC(=O)[C@@H](NC(=O)[C@H](C)NC(=O)[C@H](CCSC)NC(=O)[C@H](CCC(N)=O)NC(=O)[C@H](CCCCN)NC(=O)[C@H](CCCNC(=N)N)NC(=O)[C@H](CC(C)C)NC(=O)[C@H](CCCNC(=N)N)NC(=O)[C@@H](NC(=O)[C@H](Cc1ccc(O)cc1)NC(=O)[C@H](CC(N)=O)NC(=O)[C@H](CC(=O)O)NC(=O)[C@@H](NC(=O)[C@H](Cc1ccccc1)NC(=O)[C@@H](NC(=O)[C@H](C)NC(=O)[C@H](CC(=O)O)NC(=O)[C@H](CO)NC(=O)[C@@H](N)Cc1c[nH]cn1)C(C)C)[C@@H](C)O)[C@@H](C)O)C(C)C)C(=O)N[C@@H](CC(C)C)C(=O)N[C@@H](CC(N)=O)C(N)=O` [VIP 1-28, NH--His--Ser--Asp--Ala--Val--Phe--Thr--Asp--Asn--Tyr--Thr--Arg--Leu--Arg--Lys--Gln--Met--Ala--Val--Lys--Lys--Tyr--Leu--Asn--Ser--Ile--Leu--Asn--Amide], the “analgesia through the central nervous system” value (with lumbo-sacral spinal cord; in test [3]) was “induced analgesia” in each case. Further, in the test on kidney, the renin secretion rate result is on record as “+”. Also, the bronchodilation result in the test with bronchi is given as “bronchodilation”. The “reaction time on a nociceptive test” value in [1] was “reduced reaction time”. Further, the “cyclic Amp” value in the test on gastric mucosa is reported as “+”. For the same compound, the pepsinogen secretion result in the test with gastric mucosa was “+”. In the test with pit. tumor cells, the “ACTH, endorphin release” value is “ACTH, endorphin release”. For the same compound, in the test on systemic (Mutt 75), the cardiac output entry is reported as “+”. The hyperglycemia entry with systemic (Mutt 75) was “hyperglycemia”. Also, the respiratory stimulation result in the test with systemic (Mutt 75) is “respiratory stimulation”. Moreover, the arterial blood flow result with systemic (Mutt+ 77) was “+”. For the same compound, in the test with systemic (Mutt+ 77), the blood pressure result was “-”. For the same compound, in the test with uterus, the arterial relaxation entry is “arterial relaxation”. In addition, the blood flow entry in the test on genital tract and with heart was “+” throughout. Also, the neuronal hyperpolarization entry in the test with Schwann cell is listed as “neuronal hyperpolarization”. For the same compound, the “cyclic AMP” value in the test with pancreatic cells, with brain (amygdala) and with mononuclear cells was “+” each time. Also, the smooth muscle relaxation result in the test on stomach and in the test on trachea was “smooth muscle relaxation” in each case. Besides, in [2] (intrathecal, VIP 1-28 group), the “TFL elevation compared with saline group (significance)” value is on record as “approached, but did not reach, significance”. The vasodilation in the test with brain arteries was 30. The systemic vasodilator activity result in [4] is recorded as “has systemic vasodilator activity”. In addition, in the test on colonic cells, the chloride secretion result was “+”. Moreover, in the test with eye (Gilbard+ 88), the tear secretion entry is “+”. For the same compound, the intraocular pressure result in the test on eye (Mittag+ 87) was “-”. Further, the adenylate cyclase entry in the test on arterial cells is given as “+”. Moreover, the smooth muscle motility entry in the test on colon (Said, Mutt+ 77) is reported as “+”. Also, in the test with colon (Waldman+ 77), the water flow entry is on record as “+”. For the same compound, the hair growth result in the test on skin is on record as “+”. Moreover, the amylase release entry (in test [5]; with pancreatic acini) was “+” each time. Also, the somatostatin release entry with dienceph. cells was “+”. In addition, the lubrication entry in the test on vagina is “+”. In addition, in the test with cortical slices, the glycogenolypis entry is reported as “+”. The neuronal survival result with spinal cord cult. is “+”. Moreover, in the test on ovarian granulosa (Johnson 88), the androgen secretion result was “+”. Also, in the test on ovarian granulosa (Johnson+ 88), the progesterone secretion entry is “+”. In addition, the REM sleep entry in the test with brain (IV vent.) was “+”.
As to “TRLRKQMAVKKYLNSILN-NH2 [VIP 11-28, NH--Thr--Arg--Leu--Arg--Lys--Gln--Met--Ala--Val--Lys--Lys--Tyr--Leu--Asn--Ser--Ile--Leu--Asn--Amide]”, in [2] (intrathecal, 25 mcge, p<0.05, two-tailed, multiple t-test), the “TFL change compared with saline group (significance)” value was “significantly greater than the saline group”. For the same compound, the “mean TFL elevation, maximum, greater than the preinjection baseline level” value in [2] (intravenous (jugular vein catheter), 3 mg, 1 minute after injection, n=10) came out at 80%. For the same compound, in test [2] (intravenous, 3 mg, p<0.05, 2-tailed, Scheffe test), the “TFL compared with saline control group (significance)” value is “significantly greater effect than saline”. For the same compound, in the test on smooth muscle, the “smooth muscle relaxant action” value is given as “has shown smooth muscle relaxant action”. In addition, the “elevation in vocalization threshold” value in test [6] (25 mcge) came to 170%. In addition, in [6] (25 mcge, first minute after injection, n=10), the “vocalization threshold to tail shock, increase over baseline (pre-injection) levels” value is 70%. The “persistence of the significant threshold elevating effect” value in test [6] (25 mcge, vocalization threshold) is at least 60 min. Moreover, in [6] (25 mcge, at 1-15, 30 and 60 min. postinjection, p<0.05), the “vocalization threshold elevation compared with 25 mcg morphine sulfate (significance)” value is “significantly greater than both the morphine and the saline groups; also recorded: significantly more effective in elevating vocalization thresholds than 25 mcg morphine sulfate”. Besides, the “vocalization threshold compared with saline control group (significance)” value in test [6] (25 mcge, p<0.05, 2-tailed, multiple t-tests) is “elevated over the saline control group levels at each test for the duration of the 60 min. test period”. In test [6] (vocalization threshold), the “persistence of threshold elevating effect longer than analgesia produced by VIP 1-28” value is “at least 30 min”. Moreover, the “onset of analgesia post i.t. injection” value in [6] (vocalization threshold test) is 1 min. In [7], the “time of maximum vocalization threshold after injection” value was determined as 1 min and the “vocalization threshold compared with saline (significance)” value was “approached, but did not reach, significance; also recorded: approaching, but not attaining, significance”.
In the case of `CN1CC[C@]23c4c5ccc(O)c4O[C@H]2[C@@H](O)C=C[C@H]3[C@H]1C5.O=S(=O)(O)O` [morphine sulfate], the “TFL compared with other groups (significance)” value in [2] (intrathecal, 5 mcg) was “significantly greater than saline at 15 min. and all other groups except morphine 25 mcg at all points from 30-60 min”; in [2] (intrathecal, 25 mcg, p<0.05, two-tailed, Duncan test), “significantly greater than all other groups at all points from 5-60 minutes”. Further, in [6] (25 mcg), the “elevation in vocalization threshold” value came out at 60%. The “vocalization threshold compared with saline group (significance)” value in [6] (25 mcg, p<0.05, listed as morphine) is “significantly greater than the saline group”; in test [6] (25 mcg, p<0.05) it was “significant elevation in vocalization threshold over the saline group at 20 and 30 min. post injection”.
